Source: the NIST ThermoML archive (doi:10.1016/j.jct.2006.10.017)

Experiments:
[1] = 101 kPa, Liquid
[2] = refractive index (Na D-line) (dimensionless); conditions: 101.33 kPa, Liquid
[3] = xn = mol fraction of the nth substance listed; conditions: 101 kPa, Liquid
[4] = refractive index (Na D-line) (dimensionless); xn = mol fraction of the nth substance listed; conditions: 101 kPa, Liquid

COS(=O)(=O)[O-].Cn1cc[n+](C)c1 [1,3-dimethylimidazolium methylsulfate]
Conditions | mass density, 293.15 K [kg/m3] | mass density, 298.15 K [kg/m3] | mass density, 303.15 K [kg/m3] | refractive index, 293.15 K | refractive index, 298.15 K | refractive index, 303.15 K | speed of sound, 293.15 K [m/s] | speed of sound, 298.15 K [m/s] | speed of sound, 303.15 K [m/s]
[1] | 1330.9 | 1327.2 | 1323.7 | – | – | – | 1826 | 1813 | 1801
[2] | – | – | – | 1.48392 | 1.4827 | 1.48129 | – | – | –

CCCCn1cc[n+](C)c1.F[P-](F)(F)(F)(F)F [1-butyl-3-methylimidazolium hexafluorophosphate]
Conditions | mass density, 293.15 K [kg/m3] | mass density, 298.15 K [kg/m3] | mass density, 303.15 K [kg/m3] | refractive index, 293.15 K | refractive index, 298.15 K | refractive index, 303.15 K | speed of sound, 293.15 K [m/s] | speed of sound, 298.15 K [m/s] | speed of sound, 303.15 K [m/s]
[1] | 1371.6 | 1367.3 | 1363 | – | – | – | 1455 | 1443 | 1431
[2] | – | – | – | 1.41069 | 1.40937 | 1.40808 | – | – | –

CCCCn1cc[n+](C)c1.COS(=O)(=O)[O-] [1-butyl-3-methylimidazolium methyl sulfate]
Conditions | mass density, 293.15 K [kg/m3] | mass density, 298.15 K [kg/m3] | mass density, 303.15 K [kg/m3] | refractive index, 293.15 K | refractive index, 298.15 K | refractive index, 303.15 K | speed of sound, 293.15 K [m/s] | speed of sound, 298.15 K [m/s] | speed of sound, 303.15 K [m/s]
[1] | 1215.6 | 1212.2 | 1208.8 | – | – | – | 1671 | 1658 | 1645
[2] | – | – | – | 1.48077 | 1.47942 | 1.47806 | – | – | –

CCCCCCn1cc[n+](C)c1.F[P-](F)(F)(F)(F)F [1-hexyl-3-methylimidazolium hexafluorophosphate]
Conditions | mass density, 293.15 K [kg/m3] | mass density, 298.15 K [kg/m3] | mass density, 303.15 K [kg/m3] | refractive index, 293.15 K | refractive index, 298.15 K | refractive index, 303.15 K | speed of sound, 293.15 K [m/s] | speed of sound, 298.15 K [m/s] | speed of sound, 303.15 K [m/s]
[1] | 1297.9 | 1293.7 | 1289.6 | – | – | – | 1438 | 1424 | 1411
[2] | – | – | – | 1.41923 | 1.41787 | 1.41643 | – | – | –

CCCCCCn1cc[n+](C)c1.F[P-](F)(F)(F)(F)F [1-hexyl-3-methylimidazolium hexafluorophosphate] + CCO
Conditions | mass density, [3] [kg/m3] | refractive index, [4] | speed of sound, [3] [m/s]
293.15 K, x1 = 0.0198 | 830 | 1.36597 | 1164
293.15 K, x1 = 0.2033 | 1055.6 | 1.39358 | 1248
293.15 K, x1 = 0.312 | 1125.6 | 1.40092 | 1300
293.15 K, x1 = 0.3897 | 1161.8 | 1.40471 | 1329
293.15 K, x1 = 0.5002 | 1201.4 | 1.40893 | 1360
293.15 K, x1 = 0.5982 | 1228.4 | 1.41163 | 1380
293.15 K, x1 = 0.6961 | 1250.2 | 1.41394 | 1396
293.15 K, x1 = 0.7902 | 1267.6 | 1.41562 | 1410
293.15 K, x1 = 0.9033 | 1285.2 | 1.41784 | 1423
293.15 K, x1 = 0.992 | 1297 | 1.41884 | 1435
293.15 K, x1 = 1 | 1297.9 | 1.41923 | 1438
298.15 K, x1 = 0.0198 | 825.8 | 1.36482 | 1150
298.15 K, x1 = 0.0465 | 873.5 | 1.37109 | 1160
298.15 K, x1 = 0.0991 | 948.7 | 1.38024 | 1185
298.15 K, x1 = 0.2033 | 1051.6 | 1.3921 | 1237
298.15 K, x1 = 0.312 | 1121.5 | 1.39964 | 1288
298.15 K, x1 = 0.3897 | 1157.7 | 1.40388 | 1317
298.15 K, x1 = 0.5002 | 1197.2 | 1.4081 | 1348
298.15 K, x1 = 0.5982 | 1224.4 | 1.41098 | 1368
298.15 K, x1 = 0.6961 | 1246.2 | 1.41313 | 1384
298.15 K, x1 = 0.7902 | 1263.5 | 1.41472 | 1397
298.15 K, x1 = 0.9033 | 1281.1 | 1.41645 | 1410
298.15 K, x1 = 0.992 | 1292.8 | 1.41775 | 1421
298.15 K, x1 = 1 | 1293.7 | 1.41787 | 1424
303.15 K, x1 = 0.0198 | 821.8 | 1.36297 | 1134
303.15 K, x1 = 0.0465 | 869.8 | 1.36941 | 1144
303.15 K, x1 = 0.0991 | 944.8 | 1.3787 | 1169
303.15 K, x1 = 0.2033 | 1047.5 | 1.39057 | 1226
303.15 K, x1 = 0.312 | 1117.3 | 1.39816 | 1277
303.15 K, x1 = 0.3897 | 1153.6 | 1.40239 | 1306
303.15 K, x1 = 0.5002 | 1193.3 | 1.40693 | 1336
303.15 K, x1 = 0.5982 | 1220.4 | 1.40986 | 1357
303.15 K, x1 = 0.6961 | 1242.2 | 1.41197 | 1372
303.15 K, x1 = 0.7902 | 1259.5 | 1.41366 | 1386
303.15 K, x1 = 0.9033 | 1277 | 1.41525 | 1399
303.15 K, x1 = 0.992 | 1288.7 | 1.41635 | 1409
303.15 K, x1 = 1 | 1289.6 | 1.41643 | 1411

CCCCCCCC[n+]1ccn(C)c1.F[P-](F)(F)(F)(F)F [1-octyl-3-methylimidazolium hexafluorophosphate]
Conditions | mass density, 293.15 K [kg/m3] | mass density, 298.15 K [kg/m3] | mass density, 303.15 K [kg/m3] | refractive index, 293.15 K | refractive index, 298.15 K | refractive index, 303.15 K | speed of sound, 293.15 K [m/s] | speed of sound, 298.15 K [m/s] | speed of sound, 303.15 K [m/s]
[1] | 1239.6 | 1235.7 | 1231.9 | – | – | – | 1424 | 1408 | 1393
[2] | – | – | – | 1.4244 | 1.42302 | 1.42165 | – | – | –
